According to US20040147554A1, “Crystalline form of (3R,4R)-4-[3-(S)-hydroxy-3-(6-methoxy-quinolin-4-yl)propyl]-1-[2-2thienylthio)ethyl] piperidine-3-carboxylic acid” (Aventis Pharms S.A., priority 2002, published 2004):

Assays:
Assay type in all cases: physicochemical
[1] = Stability of the crystalline form versus humidity (powder X-ray diffraction)
Experimental: The analyses are carried out on a Bruker D8 diffractometer having a copper-anticathode tube equipped with a front monochromator (wavelength of the copper Kα1 line: 1.54060 Å). The arrangement is of Bragg-Brentano type, with a point scintillation detector. The angular range swept extends from 2 to 40 degrees 2θ with a step of 0.02 degrees 2θ. The counting time is 120 seconds per step.
Form C of (3R,4R)-4-[3-(S)-hydroxy-3-(6-methoxyquinolin-4-yl)propyl]-1-[2-(2-thienylthio)ethyl]piperidine-3-carboxylic acid is a monohydrate form. It is stable at 25° C. and at the degree of ambient humidity. It is particularly stable between 50% and 100% humidity.

[2] = Loss in mass on heating below 50% humidity (dehydration); details: between 25° C. and 75° C., 1 mole of water/mole of the acid, dehydration to form B
Experimental: Below 50% humidity, a loss in mass of 3.7% by weight is recorded between 25° C. and 75° C. (1 mole of water/mole of the acid). This loss in mass corresponds to the dehydration of the form C to give another form of (3R,4R)-4-[3-(S)-hydroxy-3-(6-methoxyquinolin-4-yl)propyl]-1-[2-(2-thienylthio)ethyl]piperidine-3-carboxylic acid, hereinafter known as form B.

[3] = Stability of the crystalline form in alcohol/water mixtures; details: methanol/water or ethanol/water (1/1 by volume), after 30 days
Experimental: by stirring a suspension of form A at a temperature of 20° C.-25° C., in tetrahydrofuran/demineralized water (50/50 by volume), methyl ethyl ketone/demineralized water (80/20 by volume to 20/80 by volume), acetonitrile/demineralized water (50/50 by volume to 20/80 by volume) or ethanol or methanol/demineralized water (50/50 by volume) mixtures, for 5 days to about 30 days.

Structure (SMILES) | humidity up to which the form is stable ([1]; humidity) | loss in mass [2] [% by weight] | stability of the crystalline form ([1]; 25° C., ambient humidity) | stability by powder X-ray diffraction ([1]; 97% humidity, 20° C., after 11 weeks) | stability of the crystalline form in solvent mixture [3]
COc1ccc2nccc([C@@H](O)CC[C@@H]3CCN(CCSc4cccs4)C[C@@H]3C(=O)O)c2c1 [Form B, (3R,4R)-4-[3-(S)-hydroxy-3-(6-methoxyquinolin-4-yl)propyl]-1-[2-(2-thienylthio)ethyl]piperidine-3-carboxylic acid] | up to 30% | – | – | – | –
COc1ccc2nccc([C@@H](O)CC[C@@H]3CCN(CCSc4cccs4)C[C@@H]3C(=O)O)c2c1 [Form C, (3R,4R)-4-[3-(S)-hydroxy-3-(6-methoxyquinolin-4-yl)propyl]-1-[2-(2-thienylthio)ethyl]piperidine-3-carboxylic acid] | – | 3.7 | stable | stability in the monohydtrate form | stable
